For one data set, the target named is T1, PDK1(h) (Homo sapiens, UniProt O15530).
T1 sequence (O15530 1-556): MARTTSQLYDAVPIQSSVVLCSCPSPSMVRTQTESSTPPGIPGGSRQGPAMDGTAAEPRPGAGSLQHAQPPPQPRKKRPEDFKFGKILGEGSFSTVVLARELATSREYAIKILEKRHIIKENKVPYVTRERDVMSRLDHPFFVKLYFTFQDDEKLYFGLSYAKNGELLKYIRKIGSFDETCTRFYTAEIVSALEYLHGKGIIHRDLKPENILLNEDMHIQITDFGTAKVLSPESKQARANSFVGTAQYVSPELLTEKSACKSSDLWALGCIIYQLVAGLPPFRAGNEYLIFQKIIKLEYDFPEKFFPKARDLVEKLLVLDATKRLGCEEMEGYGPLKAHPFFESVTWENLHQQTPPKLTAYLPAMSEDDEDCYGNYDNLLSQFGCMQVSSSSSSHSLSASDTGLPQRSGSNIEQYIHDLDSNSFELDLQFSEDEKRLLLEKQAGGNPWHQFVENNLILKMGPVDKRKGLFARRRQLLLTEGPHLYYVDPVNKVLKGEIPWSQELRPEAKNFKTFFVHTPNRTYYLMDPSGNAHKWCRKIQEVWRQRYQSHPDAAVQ
Description: Kinase selectivity panel, enzymatic activity. The format is biochemical. Conditions: read-out: Enzymatic activity (% inhibition): PDK1(h).

The format of data set [1] is in vivo. Particulars: mice, oral once daily.
Data set [2] in a line: Pharmacokinetic properties on Balb/C mouse. Particulars: in vivo, oral, 20 mg/kg.

Consider one compound from PMC4134510 (Journal of medicinal chemistry, 2010).

Structures are written as SMILES. Bounds are passed on as bounds.

With `Cc1ccc(Nc2ncc3c(n2)N(C)C(=O)N(c2cc(NC(=O)c4cccc(C(F)(F)F)c4)ccc2C)C3)cn1` [GNF-7], the inhibition at 10 µM on PDK1(h) turned out to be 0%. Moreover, in data set [1] (10 mg/kg dosing group), the body weight change result was “only a very small weight change”. Further, the body weight loss in data set [1] (doses of 20 mg/kg and above) was > 10%. Also, the AUC in data set [2] is 26.7 µM·h.

One may read the inhibition as how much of the control response was suppressed. The term AUC denotes concentration integrated over time. A higher AUC goes with more exposure.
